Assay results reported in patent US7507727B2, “Substituted quinobenzoxazine analogs and methods of using thereof” (Cylene Pharmaceuticals, Inc., priority 2003, dated 2009).
Like-named read-outs stand apart in the source and are kept apart here.

Tests used:
[1] = target: c-Myc template DNA (c-myc quadruplex); assay: Quadruplex binding / stop assay (Taq polymerase arrest, capillary electrophoresis); settings: read-out: Stop Data c-Myc μM; concentration at which 50% of the DNA was arrested (arrested:full-length 1:1)
[2] = test system: HeLa cells; assay: MTS cell proliferation and/or cytotoxicity assay; type: cell-based, Human; settings: concentration at which 50% of antiproliferative cell response is seen, 3 days incubation, read-out: MTS Data Hella
Procedure, shortened: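 HeLa cells seeded at 4,500 cells/well, exposed to compounds from day 1 for 3 days at 37 °C, 5% CO2. Viability by MTS/PMS (20:1) with 4 h incubation, absorbance at 490 nm. Values are concentrations giving 50% antiproliferative response.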

| SMILES | IC50 [1] [µM] | IC50 ([2]; Homo sapiens, HeLa, 72 h) [nM] | IC50 [2] [nM] |
| --- | --- | --- | --- |
| NC(N)=NCCCNC(=O)c1cn2c3c(c(N4CC[C@@H](N)C4)c(F)cc3c1=O)Oc1cc3ccccc3cc1-2 [compound 512] | 0.375 | 3100 |  |
| CN1CCCC1CCNC(=O)c1cn2c3c(c(NCC4CC(C)(C)N(O)C4(C)C)c(F)cc3c1=O)Oc1cc3ccccc3cc1-2 (centres unmarked) [compound 513] | 0.375 | 3100 |  |
| CN1CCCC1CCNC(=O)c1cn2c3cc4c(cc3oc3c(NCCC5CCCN5C)c(F)cc(c1=O)c32)c(=O)c1ccccc14 (centres unmarked) [compound 514] | 0.375 | 2900 |  |
| CN(C)CCCCNc1c(F)cc2c(=O)c(C(=O)NCCN3CCCC3)cn3c4cc5c(cc4oc1c23)c(=O)c1ccccc15 [compound 515] | 0.375 | 2500 |  |
| CN1CCCC1CCNC(=O)c1cn2c3c(c(N4CCC(c5cnccn5)C4)c(F)cc3c1=O)Oc1cc3ccccc3cc1-2 (centres unmarked) [compound 516] | 0.375 | 2300 |  |
| CN1CCCC1CCNc1c(F)cc2c(=O)c(C(=O)NCCN3CCOCC3)cn3c4cc5c(cc4oc1c23)c(=O)c1ccccc15 (centres unmarked) [compound 517] | 0.375 | 2200 |  |
| CN(C)CCCCNc1c(F)cc2c(=O)c(C(=O)NCCN3CCOCC3)cn3c4cc5c(cc4oc1c23)c(=O)c1ccccc15 [compound 518] | 0.375 | 2200 |  |
| CN(C)CCCCNC(=O)c1cn2c3cc4c(cc3oc3c(NCCCN5CCOCC5)c(F)cc(c1=O)c32)c(=O)c1ccccc14 [compound 519] | 0.375 | 2100 |  |
| CN1CCN(CCCNC(=O)c2cn3c4cc5c(cc4oc4c(N6CC[C@H](N)C6)c(F)cc(c2=O)c43)c(=O)c2ccccc25)CC1 [compound 520] | 0.375 | 1900 |  |
| NC1CCN(c2c(F)cc3c(=O)c(C(=O)NCCCn4ccnc4)cn4c3c2Oc2cc3c(cc2-4)oc2ccccc23)C1 (centres unmarked) [compound 521] | 0.375 | 1700 |  |
| CN(C)CCCCNc1c(F)cc2c(=O)c(C(=O)NCCCN3CCOCC3)cn3c4cc5c(cc4oc1c23)c(=O)c1ccccc15 [compound 522] | 0.375 | 1700 |  |
| CN1CCCC1CCNc1c(F)cc2c(=O)c(C(=O)NCCCN3CCOCC3)cn3c4cc5c(cc4oc1c23)c(=O)c1ccccc15 (centres unmarked) [compound 523] | 0.375 | 1600 |  |
| CN1CCN(CCCNC(=O)c2cn3c4cc5c(cc4oc4c(NCCN6CCCC6)c(F)cc(c2=O)c43)c(=O)c2ccccc25)CC1 [compound 524] | 0.375 | 1500 |  |
| CN1CCCC1CCNC(=O)c1cn2c3c(c(N4CC[C@H](N)C4)c(N)cc3c1=O)Oc1cc3ccccc3cc1-2 (some centres unmarked) [compound 526] | 0.375 | 900 |  |
| CN1CCCC1CCNc1c(F)cc2c(=O)c(C(=O)NCCN3CCCC3)cn3c4cc5c(cc4oc1c23)c(=O)c1ccccc15 (centres unmarked) [compound 527] | 0.375 | 790 |  |
| NCCCCNC(=O)c1cn2c3c(c(N4CC[C@@H](N)C4)c(F)cc3c1=O)Oc1cc3ccccc3cc1-2 [compound 528] | 0.375 | 750 |  |
| CN1CCCC1CCNC(=O)c1cn2c3c(c(N4CCC(N)C4)ccc3c1=O)Oc1cc3ccccc3cc1-2 (centres unmarked) [compound 529] | 0.375 | 750 |  |
| NC1CCN(c2c(F)cc3c(=O)c(C(=O)NCCN4CCOCC4)cn4c3c2Oc2cc3c(cc2-4)oc2ccccc23)C1 (centres unmarked) [compound 530] | 0.375 | 720 |  |
| CN(C)CC(C)(C)CNC(=O)c1cn2c3c(c(N4CCC(N)C4)c(F)cc3c1=O)Oc1cc3ccccc3cc1-2 (centres unmarked) [compound 531] | 0.375 | 480 |  |
| CN(C)CCCCNC(=O)c1cn2c3c(c(N4CCC(N)C4)c(F)cc3c1=O)Oc1cc3c(cc1-2)Cc1ccccc1-3 (centres unmarked) [compound 532] | 0.375 | 440 |  |

| SMILES | IC50 [1] [µM] | IC50 ([2]; Homo sapiens, HeLa, 72 h) [nM] | IC50 [2] [nM] |
| --- | --- | --- | --- |
| CN1CCN(CCC(=O)N[C@@H]2CCN(c3c(F)cc4c(=O)c(C(=O)NCCN5CCCC5)cn5c4c3Oc3cc4c(cc3-5)oc3ccccc34)C2)CC1 [compound 533] | 0.375 | 400 |  |
| CN1CCCC1CCNC(=O)c1cn2c3c(c(NCCCN(CCO)CCO)c(F)cc3c1=O)Oc1cc3ccccc3cc1-2 (centres unmarked) [compound 534] | 0.375 | 400 |  |
| CN1CCCC1CCNC(=O)c1cn2c3c(c(N4CCC(CCCC5CCNCC5)CC4)c(F)cc3c1=O)Oc1cc3ccccc3cc1-2 (centres unmarked) [compound 535] | 0.375 | 310 |  |
| CN1CCCC1CCNC(=O)c1cn2c3c(c(N[C@H]4CN5CCC4CC5)c(F)cc3c1=O)Oc1cc3ccccc3cc1-2 (some centres unmarked) [compound 536] | 0.375 | 310 |  |
| CN1CCCC1CCNC(=O)c1cn2c3c(c(N4CCC(N)C4)c(F)cc3c1=O)Oc1cc3c(cc1-2)Cc1ccccc1-3 (centres unmarked) [compound 537] | 0.375 | 290 |  |
| CN1CCN(CCCNC(=O)c2cn3c4c(c(N5CC[C@@H](N)C5)c(F)cc4c2=O)Oc2cc4ccccc4cc2-3)CC1 [compound 538] | 0.375 | 280 |  |
| CC1(C)CC(NC(=O)c2cn3c4c(c(N5CCC(N)C5)c(F)cc4c2=O)Oc2cc4ccccc4cc2-3)CC(C)(C)N1 (centres unmarked) [compound 539] | 0.375 | 280 |  |
| CN1CCCC1CCNC(=O)c1cn2c3c(c(N4CCC(N)C4)c(F)cc3c1=O)Oc1cc3ccccc3cc1-2 (centres unmarked) [compound 540] | 0.375 |  | 270 |
| CC(C)NCCCNC(=O)c1cn2c3c(c(N4CCC(N)C4)c(F)cc3c1=O)Oc1cc3ccccc3cc1-2 (centres unmarked) [compound 541] | 0.375 | 270 |  |
| CCN(CC)CCCC(C)NC(=O)c1cn2c3c(c(N4CCC(N)C4)c(F)cc3c1=O)Oc1cc3ccccc3cc1-2 (centres unmarked) [compound 542] | 0.375 | 230 |  |
| CCN(C)CCCC(C)NC(=O)c1cn2c3c(c(NCCN4CCCC4)ccc3c1=O)Oc1cc3ccccc3cc1-2 (centres unmarked) [compound 543] | 0.375 | 200 |  |
| O=C(NCCN1CCCC1)c1cn2c3c(c(N4CC5CCCNC5C4)ccc3c1=O)Oc1cc3ccccc3cc1-2 (centres unmarked) [compound 544] | 0.375 | 200 |  |
| O=C(NCCN1CCCC1)c1cn2c3c(c(N4CC5CCCNC5C4)c(F)cc3c1=O)Oc1cc3ccccc3cc1-2 (centres unmarked) [compound 545] | 0.375 | 150 |  |
| CN1CCCC1CCNC(=O)c1cn2c3c(c(N4CC5CCCNC5C4)c(F)cc3c1=O)Oc1cc3ccccc3cc1-2 (centres unmarked) [compound 546] | 0.375 | 100 |  |
| O=C(NCCCN1CCOCC1)c1cn2c3c(c(N4CC5CCCNC5C4)c(F)cc3c1=O)Oc1cc3ccccc3cc1-2 (centres unmarked) [compound 547] | 0.375 | 100 |  |
| CN(C)CCCCNC(=O)c1cn2c3c(c(N4CC5CCCNC5C4)c(F)cc3c1=O)Oc1cc3ccccc3cc1-2 (centres unmarked) [compound 548] | 0.375 | 100 |  |
| O=C(NCCC1CCCN1)c1cn2c3c(c(NCCCN4CCOCC4)c(F)cc3c1=O)Oc1cc3c(cc1-2)oc1ccccc13 (centres unmarked) [compound 562] | 0.32 | 850 |  |
| N[C@@H]1CCN(c2c(F)cc3c(=O)c(C(=O)NCCC4CCCN4)cn4c3c2Oc2cc3c(cc2-4)oc2ccccc23)C1 (some centres unmarked) [compound 563] | 0.25 | 310 |  |
| CN1CCCC1CCNC(=O)c1cn2c3c(c(N4CC[C@@H](N)C4)c(F)cc3c1=O)Oc1cc3ccccc3cc1-2 (some centres unmarked) [compound 564] | 0.25 | 290 |  |
| N[C@@H]1CCN(c2c(F)cc3c(=O)c(C(=O)NCCN4CCCC4)cn4c3c2Oc2cc3ccccc3cc2-4)C1 [compound 565] | 0.25 | 200 |  |
